The values below come from US9757455B2, “Oral therapeutic compound delivery system” (Johnson & Johnson Consumer Inc., priority 2005, dated 2017).

≈ marks a conversion by molar mass, not a printed value. Where a name gives a salt, the structure may show the parent alone. Read-outs that look alike come from different tables or passages of the source. Marks after values point to notes of the source that are not given here.

One series in a line: Solubility in water. As to conditions: for solubility: water.
A short description of series [1]: Dissolution, USP dissolution apparatus 2, 900 mL 0.0033 N hydrochloric acid, 0 rpm, 37° C. It is filed as physicochemical. As to conditions: for % dissolved in 900 mL 0.0033 N HCl: basic and amphoteric drugs in formulations according to the invention (Table 32), 0 rpm. Here is the method: (§1) Testing was conducted in a dissolution medium containing 900 mL 0.0033 N hydrochloric acid (HCl) at 37° C. which discriminates better between fast dissolving formulations than more acidic dissolution media where the effect of high acid concentration tends to mask formulation effects on dissolution. 900 mL of this medium contains the absolute amount of acid estimated to be present in the gastric contents in vivo, namely 3 millimoles.
Dissolution results without stirring may be of in vivo significance in conditions where there is gut stasis or reduced gastric activity.
(§2) Testing at was conducted at a stirring speed of 30 rpm and also at 0 rpm which provides more discrimination between formulations. To achieve maximum dissolution, the stirring speed was increased to 250 rpm for 10 minutes after 20 minutes for measurements at 30 rpm, and after 60 minutes for measurements at 0 rpm.
(§3) Unless otherwise stated, drug concentrations were measured using a Varian Cary 50 UV-Vis Spectrophotometer set at an appropriate wavelength using flow through cells for automatic continuous sampling. For each drug, the optimal wavelength was selected after running UV scans in the dissolution medium.

The nature of series [2]: Dissolution, USP dissolution apparatus 2, 900 mL 0.0033 N hydrochloric acid, 30 rpm, 37° C. It is filed as physicochemical. The conditions noted are these: basic and amphoteric drugs in formulations according to the invention (Table 32). Here is the method: as §1, §2, §3
A suitable C18 column and guard column were used. Results were processed using Waters Empower software.

The mark [3] stands for this setting: pH modulating agent: Bicarb + acid, 300 sec (Table 33).
Where [4] appears, read: pH modulating agent: Bicarb + acid, 15 min (Table 33).
[5] abbreviates: pH modulating agent: Bicarb + acid, 30 min (Table 33).
The mark [6] stands for this setting: pH modulating agent: Bicarbonate, 300 sec (Table 33).
The mark [7] stands for this setting: pH modulating agent: Bicarbonate, 15 min (Table 33).
Where [8] appears, read: pH modulating agent: Bicarbonate, 30 min (Table 33).
The mark [9] stands for this setting: 30 minutes, 30 rpm (increased to 250 rpm after 20 minutes).
[10] abbreviates: dose (mg) of each drug as in Table 78.

As a reminder, the solubility is the dissolved amount per volume that the medium holds. A high value points to a readily soluble substance. `CC(C)Cc1ccc(C(C)C(=O)O)cc1` (centres unmarked) [Ibuprofen]: in “Solubility in water”, the “Effect of ↑ pH on solubility” value is recorded as “↑” and the solubility stood at 40 µg/mL (≈ 194 µM).
Take `C[C@]12C=CC(=O)C=C1CC[C@@H]1[C@@H]2[C@@H](O)C[C@@]2(C)[C@H]1CC[C@]2(O)C(=O)CO` [Prednisolone]: the “Volume of water (mL) to dissolve dose” value came to 23 mL in “Solubility in water” (dose per tablet as in label, listed as Prednisolone 5 mg) and 114 mL in “Solubility in water” (dose per tablet as in label, listed as Prednisolone 25 mg).
As to `CCN(CC)CCNC(=O)c1cc(Cl)c(N)cc1OC` [Metoclopramide hydrochloride], the “% dissolved in 900 mL 0.0033 N HCl” value in series [1] (180 sec) came out at 26%; in series [1] (300 sec), 69%; in series [1] (15 minutes), 86%; in series [1] (30 minutes), 91%; in series [2] (180 sec, 30 rpm), 94%; in series [2] (300 sec, 30 rpm), 95%. Also, the “% dissolved in 900 mL 0.0033 N HCl” value is on record as 97% in series [2] (15 minutes, 30 rpm) and 100% in series [2] (setting [9]). In addition, the “% drug dissolved in 900 mL 0.0033 N HCl at 0 rpm” value (“% drug dissolved” for short) is recorded as 69% in series [1] (setting [3]); 86% in series [1] (setting [4]); 91% in series [1] (setting [5]); 5% in series [1] (setting [6]); 28% in series [1] (setting [7]); 46% in series [1] (setting [8]). In “Solubility in water” (setting [10]), the “Volume (mL) of water to dissolve dose” value was found to be 50 mL.
On to `O=C1Nc2ccc(Cl)cc2C(c2ccccc2Cl)=NC1O` (centres unmarked) [Lorazepam], for which the “% dissolved in 900 mL 0.0033 N HCl” value in series [1] (180 sec) was 77%; in series [1] (300 sec), 85%; in series [1] (15 minutes) it was 95%; in series [1] (30 minutes) it was 99%; in series [2] (180 sec, 30 rpm) it was 77%; in series [2] (300 sec, 30 rpm) it was 88%. The “% dissolved in 900 mL 0.0033 N HCl” value in series [2] (15 minutes, 30 rpm) turned out to be 96%; in series [2] (setting [9]) it was 100%. Besides, the “% drug dissolved” value is reported as 85% in series [1] (setting [3]); 95% in series [1] (setting [4]); 99% in series [1] (setting [5]); 6% in series [1] (setting [6]); 6% in series [1] (setting [7]); 11% in series [1] (setting [8]).
Regarding `Cc1nccn1CC1CCc2c(c3ccccc3n2C)C1=O` (centres unmarked) [Ondansetron hydrochloride], the “% dissolved in 900 mL 0.0033 N HCl” value in series [1] (180 sec) stood at 50%; in series [1] (300 sec), 65%; in series [1] (15 minutes), 79%; in series [1] (30 minutes), 85%; in series [2] (180 sec, 30 rpm) it was 88%; in series [2] (300 sec, 30 rpm), 96%. In addition, the “% dissolved in 900 mL 0.0033 N HCl” value in series [2] (15 minutes, 30 rpm) amounted to 100%; in series [2] (setting [9]) it was 100%. The molecule also came in with a Solubility in water in “Solubility in water” of 2.42 mg/mL. Also, the “Volume (mL) of water to dissolve dose” value in “Solubility in water” (setting [10]) is listed as 4 mL.
Take `CN(C)CCc1c[nH]c2ccc(Cn3cncn3)cc12` [Rizatriptan benzoate]: the “% dissolved in 900 mL 0.0033 N HCl” value in series [1] (180 sec) is recorded as 94%; in series [1] (15 minutes), 100%; in series [1] (30 minutes), 100%; in series [2] (180 sec, 30 rpm) it was 96%; in series [2] (300 sec, 30 rpm) it was 96%; in series [2] (15 minutes, 30 rpm), 96%. Moreover, the “% dissolved in 900 mL 0.0033 N HCl” value in series [2] (setting [9]) came to 97%. For the same molecule, the “Volume (mL) of water to dissolve dose” value in the series “Solubility in water” (setting [10]) came to 0.3 mL. Besides, the Solubility in water in the series “Solubility in water” (solubility of the base not salt) is 42* mg/mL.
For the molecule `O=C(O)Cc1ccccc1Nc1c(Cl)cccc1Cl` [Diclofenac potassium], in “Solubility in water”, the “Effect of ↑ pH on solubility” value is “↑” and the solubility was found to be 10000 µg/mL. For the same molecule, in “Solubility in water” (dose per tablet as in label), the “Volume of water (mL) to dissolve dose” value is 7 mL.
Take `C[C@@H]1C[C@H]2[C@@H]3CCC4=CC(=O)C=C[C@]4(C)[C@@]3(F)[C@@H](O)C[C@]2(C)[C@@]1(O)C(=O)CO` [Dexamethasone]: in the series “Solubility in water”, the “Effect of ↑ pH on solubility” value is listed as “⇄”.
Turning to `Cc1ccc(-c2nc3ccc(C)cn3c2CC(=O)N(C)C)cc1` [Zolpidem tartrate], the “% dissolved in 900 mL 0.0033 N HCl” value in series [1] (180 sec) was determined as 77%; in series [1] (300 sec), 91%; in series [1] (15 minutes), 94%; in series [1] (30 minutes), 96%; in series [2] (180 sec, 30 rpm), 96%; in series [2] (300 sec, 30 rpm), 96%. The “% dissolved in 900 mL 0.0033 N HCl” value was 97% in series [2] (15 minutes, 30 rpm) and 98% in series [2] (setting [9]). In “Solubility in water” (setting [10]), the “Volume (mL) of water to dissolve dose” value is listed as 0.4 mL.
Regarding `CN(C)C(=O)C(CCN1CCC(O)(c2ccc(Cl)cc2)CC1)(c1ccccc1)c1ccccc1` [Loperamide hydrochloride], the “% dissolved in 900 mL 0.0033 N HCl” value is 70% in series [1] (180 sec); 72% in series [1] (300 sec); 87% in series [1] (15 minutes); 95% in series [1] (30 minutes); 82% in series [2] (180 sec, 30 rpm); 84% in series [2] (300 sec, 30 rpm). Moreover, the “% dissolved in 900 mL 0.0033 N HCl” value came out at 89% in series [2] (15 minutes, 30 rpm) and 100% in series [2] (setting [9]). Also, the “% drug dissolved” value in series [1] (setting [3]) is given as 72%; in series [1] (setting [4]), 87%; in series [1] (setting [5]), 95%; in series [1] (setting [6]) it was 27%; in series [1] (setting [7]), 43%; in series [1] (setting [8]), 101%. Moreover, the “Volume (mL) of water to dissolve dose” value in the series “Solubility in water” was determined as 2 mL.
In the case of `Cc1ccc(-c2cc(C(F)(F)F)nn2-c2ccc(S(N)(=O)=O)cc2)cc1` [Celecoxib], in the series “Solubility in water”, the “Effect of ↑ pH on solubility” value was “⇄” and the solubility is 3.46 µg/mL (≈ 9.07 µM).
Take `CN(C)CCc1c[nH]c2ccc(C[C@H]3COC(=O)N3)cc12` [Zolmitriptan]: the “% dissolved in 900 mL 0.0033 N HCl” value was 66% in series [1] (180 sec); 77% in series [1] (300 sec); 88% in series [1] (15 minutes); 96% in series [1] (30 minutes); 73% in series [2] (180 sec, 30 rpm); 76% in series [2] (300 sec, 30 rpm). The “% dissolved in 900 mL 0.0033 N HCl” value in series [2] (15 minutes, 30 rpm) stood at 86%; in series [2] (setting [9]) it was 98%. For the same molecule, the “Volume (mL) of water to dissolve dose” value in the series “Solubility in water” (setting [10]) is 2 mL.
Regarding `CN1C(=O)C(O)N=C(c2ccccc2)c2cc(Cl)ccc21` (centres unmarked) [Temazepam], the “Volume of water (mL) to dissolve dose” value in “Solubility in water” was found to be 83 mL.
As for `Cc1ccc(C)c(OCCCC(C)(C)C(=O)O)c1` [Gemfibrozil], in the series “Solubility in water”, the “Effect of ↑ pH on solubility” value was “↑” and the solubility came out at 29 µg/mL (≈ 116 µM). Moreover, the “Volume of water (mL) to dissolve dose” value in “Solubility in water” (dose per tablet as in label) is on record as 20,690 mL.
For `Cc1nnc2n1-c1ccc(Cl)cc1C(c1ccccc1)=NC2` [Alprazolam], the “% dissolved in 900 mL 0.0033 N HCl” value in series [1] (180 sec) turned out to be 13%; in series [1] (300 sec), 20%; in series [1] (15 minutes), 45%; in series [1] (30 minutes), 63%; in series [2] (180 sec, 30 rpm) it was 61%; in series [2] (300 sec, 30 rpm), 67%. Also, the “% dissolved in 900 mL 0.0033 N HCl” value in series [2] (15 minutes, 30 rpm) came to 77%; in series [2] (setting [9]), 100%. The “% drug dissolved” value in series [1] (setting [3]) is 20%; in series [1] (setting [4]), 45%; in series [1] (setting [5]) it was 63%; in series [1] (setting [6]) it was 1%; in series [1] (setting [7]), 4%; in series [1] (setting [8]), 4%. Further, in “Solubility in water” (setting [10]), the “Volume (mL) of water to dissolve dose” value was 14 mL.
As for `CN1CCC[C@@H]1Cc1c[nH]c2ccc(CCS(=O)(=O)c3ccccc3)cc12` [Eletriptan hydrochloride, Eletriptan hydrobromide], the “% dissolved in 900 mL 0.0033 N HCl” value was 88% in series [1] (180 sec); 95% in series [1] (300 sec); 98% in series [1] (15 minutes); 100% in series [1] (30 minutes); 94% in series [2] (180 sec, 30 rpm); 96% in series [2] (300 sec, 30 rpm). The “% dissolved in 900 mL 0.0033 N HCl” value was determined as 97% in series [2] (15 minutes, 30 rpm) and 99% in series [2] (setting [9]). For the same molecule, the “Volume (mL) of water to dissolve dose” value in the series “Solubility in water” (setting [10]) is recorded as 4 mL.
